The values below come from patent publication US20230303540A1 (Merck Sharp & Dohme LLC, priority 2020, published 2023).

The test deals with GST-tagged truncated human mutant G2019S LRRK2 (Homo sapiens, UniProt Q5S007, G2019S). Kind of test: LRRK2 G2019S Km ATP LanthaScreen assay. It is filed as biochemical. Particulars: 134 μM ATP (Km ATP), LRRKtide substrate, mean IC50 values; read-out: LRRK2 pIC50 (converted). As for the experimental part:
Unless otherwise noted, all reactions are magnetically stirred. Unless otherwise noted, when diethyl ether is used in the experiments described below, it is Fisher ACS certified material and is stabilized with BHT. Unless otherwise noted, “concentrated” and/or “solvent removed under reduced pressure” means evaporating the solvent from a solution or mixture using a rotary evaporator or vacuum pump. Unless otherwise noted, flash chromatography is carried out on a Teledyne Isco (Lincoln, NE), Analogix (Burlington, WI), or Biotage (Stockholm, SWE) automated chromatography system using a commercially available cartridge as the column. Columns may be purchased from Teledyne Isco, Analogix, Biotage, Varian (Palo Alto, CA), or Supelco (Bellefonte, PA) and are usually filled with silica gel as the stationary phase. Reverse phase prep-HPLC conditions, where used, can be found at the end of each experimental section. Aqueous solutions were concentrated on a Genevac (Ipswich, ENG) or by freeze-drying/lyophilization. Unless otherwise noted, all LRRK2 pIC50 data presented in tables refers to the LRRK2 G2019S Km ATP LanthaScreen™ assay (Life Technologies Corp., Carlsbad, CA) that is described in the Biological Assay section.
The IC50 values reported herein were measured as follows.
Biological Assay: LRRK2 Km ATP LanthaScreen™ Assay
The LRRK2 kinase activity reported herein as IC50 values was determined with LanthaScreen™ technology from Life Technologies Corporation (Carlsbad, CA) using GST-tagged truncated human mutant G2019S LRRK2 in the presence of the fluorescein-labeled peptide substrate LRRKtide, also from Life Technologies. The data presented for the Km ATP LanthaScreen™ Assay represents mean IC50 values based on several test results and may have reasonable deviations depending on the specific conditions and reagents used. Assays were performed in the presence of 134 μM ATP (Km ATP). Upon completion, the assay was stopped and phosphorylated substrate detected with a terbium (Tb)-labeled anti-pERM antibody (cat. no. PV4898). The compound dose response was prepared by diluting a 10 mM stock of compound to a maximum concentration of 9.99 μM in 100% dimethylsulfoxide followed by custom fold serial dilution in dimethylsulfoxide nine times. Twenty nanoliters of each dilution was spotted via a Labcyte Echo onto a 384-well black-sided plate (Corning 3575) followed by 15 μl of a 1.25 nM enzyme solution in 1× assay buffer (50 mM Tris pH 8.5, 10 mM MgCl2, 0.01% Brij-35, 1 mM EGTA, 2 mM dithiothreitol, 0.05 mM sodium orthovanadate). Following a 15-minute incubation at room temperature, the kinase reaction was started with the addition of 5 μl of 400 nM fluorescein-labeled LRRKtide peptide substrate and 134 μM ATP solution in 1× assay buffer. The reaction was allowed to progress at ambient temperature for 90 minutes. The reaction was then stopped by the addition of 20 μl of TR-FRET Dilution Buffer (Life Technologies, Carlsbad, CA) containing 2 nM Tb-labeled anti-phospho LRRKtide antibody and 10 mM EDTA (Life Technologies, Carlsbad, CA). After an incubation of 1 hour at room temperature, the plate was read on an EnVision multimode plate reader (Perkin Elmer, Waltham, MA) with an excitation wavelength of 337 nm (Laser) and a reading emission at both 520 and 495 nm. Compound IC50s were interpolated from nonlinear regression best fits of the log of the final compound concentration, plotted as a function of the 520/495-nm emission ratio using Activity base. Abase uses a 4 parameter (4P) logistic fit based on the Levenberg-Marquardt algorithm.
As for `Cc1c(Nc2ncc3cc(Cl)c(N4CCC(C)(O)C(C)C4)cc3n2)cnn1C1CC1` (single isomer, unassigned) [Ex-3.47, (3R,4R) or (3S,4S) or (3R,4S) or (3S,4R) 1-{6-chloro-2-[(1-cyclopropyl-5-methyl-1H-pyrazol-4-yl)amino]quinazolin-7-yl}-3,4-dimethylpiperidin-4-ol], the IC50 is 10.2 nM.

With `Cc1c(Nc2ncc3cc(Cl)c(N4CCC(C)(O)C(C)C4)cc3n2)cnn1C1CC1` (single isomer, unassigned) [Ex-3.48, (3R,4R) or (3S,4S) or (3R,4S) or (3S,4R) 1-{6-chloro-2-[(1-cyclopropyl-5-methyl-1H-pyrazol-4-yl)amino]quinazolin-7-yl}-3,4-dimethylpiperidin-4-ol], the IC50 is 1.46 nM.

`Cc1c(Nc2ncc3cc(Cl)c(N4CCC(C)(O)C(C)C4)cc3n2)cnn1C1CC1` (single isomer, unassigned) [Ex-3.49, (3R,4R) or (3S,4S) or (3R,4S) or (3S,4R) 1-{6-chloro-2-[(1-cyclopropyl-5-methyl-1H-pyrazol-4-yl)amino]quinazolin-7-yl}-3,4-dimethylpiperidin-4-ol]: the IC50 was 1.33 nM.

As for `Cc1c(Nc2ncc3cc(Cl)c(N4CCC(C)(O)C(C)C4)cc3n2)cnn1C1CC1` (single isomer, unassigned) [Ex-3.50, (3R,4R) or (3S,4S) or (3R,4S) or (3S,4R) 1-{6-chloro-2-[(1-cyclopropyl-5-methyl-1H-pyrazol-4-yl)amino]quinazolin-7-yl}-3,4-dimethylpiperidin-4-ol], the IC50 is 0.821 nM.

For the molecule `O[C@@H]1COC[C@@H]1N1CCN(c2cc3nc(Nc4cnn(C5CC5)c4Cl)ncc3cc2Cl)CC1` (single isomer, unassigned) [Ex-3.51, (3R,4R) or (3S,4S) 4-(4-{6-chloro-2-[(5-chloro-1-cyclopropyl-1H-pyrazol-4-yl)amino]quinazolin-7-yl}piperazin-1-yl)oxolan-3-ol], the IC50 was 16.3 nM.

As to `O[C@@H]1COC[C@@H]1N1CCN(c2cc3nc(Nc4cnn(C5CC5)c4Cl)ncc3cc2Cl)CC1` (single isomer, unassigned) [Ex-3.52, (3R,4R) or (3S,4S) 4-(4-{6-chloro-2-[(5-chloro-1-cyclopropyl-1H-pyrazol-4-yl)amino]quinazolin-7-yl}piperazin-1-yl)oxolan-3-ol], the IC50 is 0.887 nM.

`OC1COCC12CCN(c1cc3nc(Nc4cnn(C5CC5(F)F)c4Cl)ncc3cc1Cl)CC2` (single isomer, unassigned) [Ex-3.56]: the IC50 is 3.56 nM.

With `OC1COCC12CCN(c1cc3nc(Nc4cnn(C5CC5(F)F)c4Cl)ncc3cc1Cl)CC2` (single isomer, unassigned) [Ex-3.57], the IC50 is 23.1 nM.

On to `OC1COCC1N1CCN(c2cc3nc(Nc4cnn(C56CC(F)(C5)C6)c4Cl)ncc3cc2Cl)CC1` (single isomer, unassigned) [Ex-3.58, (3R,4R) or (3S,4S) 4-(4-(6-chloro-2-((5-chloro-1-(3-fluorobicyclo[1.1.1]pentan-1-y])-1H-pyrazol-4-yl)amino)quinazolin-7-yl)piperazin-1-yl) tetrahydrofuran-3-ol], for which the IC50 is 0.44 nM.

As for `CC1(N2CCN(c3cc4nc(Nc5cnn(C(F)F)c5Cl)ncc4cc3Cl)CC2)COCC1O` (single isomer, unassigned) [Ex-3.59, (3R,4R) or (3S,4S) 4-(4-(6-chloro-2-((5-chloro-1-(difluoromethyl)-1H-pyrazol-4-yl)amino)quinazolin-7-yl)piperazin-1-yl)-4-methyltetrahydrofuran-3-ol], the IC50 was 0.178 nM.

On to `CC1(N2CCN(c3cc4nc(Nc5cnn(C6CC6(F)F)c5Cl)ncc4cc3Cl)CC2)CCOC1` (single isomer, unassigned) [Ex-3.60, (R or S) 6-chloro-N-(5-chloro-1-((S) or (R) 2,2-difluorocyclopropyl)-1H-pyrazol-4-yl)-7-(4-(3-methyltetra-hydrofuran-3-yl)piperazin-1-yl) quinazolin-2-amine], for which the IC50 is 0.2 nM.
